Data as given in ChEMBL document CHEMBL1132426, “Inhibitors of the C(2)-symmetric HIV-1 protease: nonsymmetric binding of a symmetric cyclic sulfamide with ketoxime groups in the P2/P2' side chains” (J Med Chem, 1999).

target: Human immunodeficiency virus type 1 protease (Human immunodeficiency virus 1, UniProt Q72874); test: Inhibitory activity against HIV-1 Protease expressed in Escherichia coli

`O=S1(=O)N(Cc2cccc(CCO)c2)[C@H](COc2ccccc2)[C@H](O)[C@@H](O)[C@@H](COc2ccccc2)N1Cc1cccc(CCO)c1` and `CC(=O)c1cccc(CN2[C@H](COc3ccccc3)[C@H](O)[C@@H](O)[C@@H](COc3ccccc3)N(Cc3cccc(C(C)=O)c3)S2(=O)=O)c1` are within 1.5-fold of each other in Ki: 43 nM for the first, 59 nM for the second.

Compared with `COC(=O)c1ccc(CN2[C@H](COc3ccccc3)[C@H](O)[C@@H](O)[C@@H](COc3ccccc3)N(Cc3ccc(C(=O)OC)cc3)S2(=O)=O)cc1`, `O=S1(=O)N(Cc2ccc(CO)cc2)[C@H](COc2ccccc2)[C@H](O)[C@@H](O)[C@@H](COc2ccccc2)N1Cc1ccc(CO)cc1` is 27-fold lower in Ki: 84 nM for the first, 3.1 nM for the second. The second binds more tightly here.

First: C/C(=N/O)c1cccc(CN2[C@H](COc3ccccc3)[C@H](O)[C@@H](O)[C@@H](COc3ccccc3)N(Cc3cccc(/C(C)=N\O)c3)S2(=O)=O)c1
Second: COC(Cc1cccc(CN2[C@H](COc3ccccc3)[C@H](O)[C@@H](O)[C@@H](COc3ccccc3)N(Cc3cccc(CC(OC)OC)c3)S2(=O)=O)c1)OC
The Ki of the first is 160-fold lower: 3.4 nM for the first, 540 nM for the second. The first binds more tightly here.
